In patent US9034303B2, “Neuroprotective and neuro-restorative iron chelators and monoamine oxidase inhibitors and uses thereof” (priority 2010, dated 2015):
Read-outs that look alike come from different tables or passages of the source.

Columns and labels:
[1] = Follow-up stability experiment at 37° C. in PBS; format: physicochemical
Description: Using high pressure liquid chromatography (HPLC), the stability of each of the tested compounds was determined by following its respective chemical character over time in either phosphate buffered saline (PBS) and/or 0.85% saline solution (sodium chloride). In each case, 0.5 mM of the tested compound in PBS or saline solution was incubated at 25° C. or at 37° C. for 20 hours or, in some cases, up to two days (48 hours).
In addition, in a follow-up experiment the instability of M30, and the stability of compounds 3, 7 and 8 was also confirmed at 37° C. in PBS, Table 2, below.

rat brain MAO-A = rat brain MAO-A (Rattus norvegicus (Rat), UniProt P21396); experiment: In vitro inhibition of rat brain MAO-A (14C-5-HT substrate); format: biochemical
Description: Rats are decapitated and the brains quickly taken into a weighted ice-cold sucrose buffer (0.32 M) and their weights determined. All subsequent procedures are performed at 0° C. The brains are homogenized in 0.32 M sucrose (one part tissue to 20 parts sucrose) in a Teflon glass homogenizer followed by the addition of sucrose buffer to a final concentration of 10% homogenate. The homogenates are centrifuged at 600 g for 15 min. The supernatant fractions are taken out and centrifuged at 4500 g for 30 min, the pellet diluted in 0.32 M sucrose buffer and kept frozen for later assaying of MAO. Protein concentration is determined with Bradford reagent at λ=595 nm, using BSA as a standard.
MAO-A and MAO-B activities are determined in rat brain homogenate in vitro following incubation with varying concentrations of the test compounds.
The activity of MAO-A and MAO-B was determined by the adapted method of Tipton & Youdim (Tipton K F, O'Sullivan J, Youdim M B, 1983, Encyclopedia of Neuroscience, 2004, G. Adelman and B. H. Smith, Elsevier). The test compound was added to a suitable dilution of the enzyme preparation (70 μg protein for MAO-B and 150 μg MAO-A assay) in 0.1 M phosphate buffer (pH 7.4). The mixture was incubated together with […], a specific inhibitor of MAO-B (for determination of MAO-A) or 0.05 M clorgylin, a specific inhibitor of MAO-A (for determination of MAO-B). Incubation was carried for 0.5 or 1 h at 37° C. before addition of ^14C-5-hydroxytryptamine binoxalate (5-HT) (100 or 400 μM) for determination of MAO-A, or ^14C-phenylethylamine (^14C-PEA) 100 or 400 μM for determination of MAO-B, and incubation continued for 30 min or 20 min, respectively. The reaction was stopped with 2 M ice-cold citric acid, and the metabolites were extracted and determined by liquid-scintillation counting in cpm units. […]
MAO-A and MAO-B activity was measured using radioactive substrates. The substrate for MAO-A was 5 HT and for MAO-B was PEA. When measuring the activity of MAO-A, the MAO-B activity was inhibited with deprenyl and when measuring the activity of MAO-B the activity of MAO-A was inhibited with clorgylin. Blank samples were produced using TCP to inhibit both of the enzymes. The metabolites were extracted to toluene and read in a β-counter. The results are expressed in relative activity and normalized to the amount of protein in the tissue.

SHSY-5Y cells = experiment: Cytotoxicity in presence and absence of exogenous iron, SH-SY5Y; format: cell-based, human
Description: The potential of compound 3 to be toxic in the presence of free iron was also tested. The iron complexation method was based on the method of Leanderson and Tagesson (Carcinogenesis, 17, 545-550, 1996) with some modifications. Iron (III) was prepared from ferric ammonium citrate (Sigma, F5879) at 80 mM in sterile distilled water. Compound 3 was prepared at a 200 mM concentration in DMSO. Before each experiment, the freshly prepared iron (III) solution was diluted to 0.4 mM in PBS II (PBS containing 0.90 mM Ca^2+ and 0.49 mM Mg^2+). Compound 3 stock solutions were diluted to 2, 0.2, and 0.02 mM with PBS II. Equal volumes of the 0.4 mM iron (III) solution and compound 3 solutions were added together to prepare iron/test article complex solutions containing 1, 0.1, and 0.01 mM compound 3 and 0.2 mM iron (III). The compound 3 DMSO stock solution was diluted in PBS II at 1, 0.1, or 0.01 mM and used as compound 3 control without iron. An equal volume of the 0.4 mM iron (III) solution was diluted in PBS II to prepare a control containing only iron.
The medium was removed from the plated cells (both cell lines) and replaced with fresh medium (90 μL). Iron/compound 3 complex or compound 3 in PBS II without iron was added to cells in triplicate (10 μL) to final compound 3 concentrations of 100, 10, and 1 μM and an iron (III) concentration of 20 μM. Wells containing no cells were used as the background control. PBS II was run as vehicle control. Iron only was run at a final concentration of 20 μM.
Cell viability was determined as described above and cytotoxicity was compared between treatments with and without iron complexation.

MAO-A = MAO-A (Mus musculus (Mouse), UniProt Q64133); format: in vivo, mice
Description: For the MAO-inhibition study, mice (6 mice in each group) were injected intraperitoneally (i.p.) with compound 3 at the dosage of 5 or 10 mg/kg; or with M30 at the dosage of 10 mg/kg. Control mice received saline (0.1 mL) i.p. One hour later the mice were killed by cervical dislocation, while striatum and small intestine were removed rapidly and frozen in liquid nitrogen for further analysis. FIGS. 3 and 4 show MAO-A/MAO-B in vivo activity of compound 3 compared to the activity of M30. FIG. 3 presents an MAO inhibition in striatum, and FIG. 4 presents an MAO inhibition in intestine. The percent inhibition was computed based on comparison to control animals.

MAO-A, sequence (Q64133 whole entry): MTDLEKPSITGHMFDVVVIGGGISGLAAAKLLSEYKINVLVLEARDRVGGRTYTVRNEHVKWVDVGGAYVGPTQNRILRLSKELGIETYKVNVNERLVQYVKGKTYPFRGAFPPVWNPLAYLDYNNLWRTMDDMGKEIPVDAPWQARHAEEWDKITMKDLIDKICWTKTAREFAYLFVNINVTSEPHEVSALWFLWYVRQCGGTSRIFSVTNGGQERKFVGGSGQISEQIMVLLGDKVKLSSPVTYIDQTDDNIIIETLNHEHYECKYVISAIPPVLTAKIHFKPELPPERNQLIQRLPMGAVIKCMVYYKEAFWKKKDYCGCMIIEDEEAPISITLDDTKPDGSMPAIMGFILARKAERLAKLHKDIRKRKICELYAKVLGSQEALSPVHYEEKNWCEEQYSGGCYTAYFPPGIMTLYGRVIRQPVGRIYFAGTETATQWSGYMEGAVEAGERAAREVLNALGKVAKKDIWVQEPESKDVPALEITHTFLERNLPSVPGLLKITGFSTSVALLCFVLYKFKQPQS
rat brain MAO-A, sequence (P21396 whole entry): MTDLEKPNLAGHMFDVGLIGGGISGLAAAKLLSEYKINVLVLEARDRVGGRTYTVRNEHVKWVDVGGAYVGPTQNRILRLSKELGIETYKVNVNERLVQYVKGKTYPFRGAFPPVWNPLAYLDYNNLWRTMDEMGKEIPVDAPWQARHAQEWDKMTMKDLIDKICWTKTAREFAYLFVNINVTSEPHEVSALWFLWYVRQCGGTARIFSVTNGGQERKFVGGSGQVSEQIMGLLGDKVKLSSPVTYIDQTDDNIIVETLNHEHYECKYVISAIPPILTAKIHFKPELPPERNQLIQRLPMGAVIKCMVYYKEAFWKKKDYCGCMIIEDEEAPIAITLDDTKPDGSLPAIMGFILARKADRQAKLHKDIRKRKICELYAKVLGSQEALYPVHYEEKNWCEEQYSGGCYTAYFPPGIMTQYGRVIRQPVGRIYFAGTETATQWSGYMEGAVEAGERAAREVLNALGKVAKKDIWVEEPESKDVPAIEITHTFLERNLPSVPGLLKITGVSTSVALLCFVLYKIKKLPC

For `C#CCN(C)CCc1ccc(O)c2ncccc12` [Compound 3, 5-[2-(methyl-2-propyn-1-ylamino)ethyl]-8-quinolinol], the “Amount of compound remaining (%)” value ([1]; 3 hours) was “≧100%”, the “Amount of compound remaining (%)” value ([1]; 8 hours) was 95.7% and the “Amount of compound remaining (%)” value ([1]; 24 hours) was “≧100%”. For the same compound, the “Amount of compound remaining (%)” value ([1]; 48 hours) was 87.2%, the IC50 (rat brain MAO-A) was 70 to 90 nM and the “Inhibition of rat brain MAO-A in vitro (in words)” value (rat brain MAO-A; rat brain) was “potent inhibitors”. The IC50 (rat brain MAO-A; read-out: MAO-A IC50, estimated from the data in FIG. 1, rat brain MAO-A) was 70 to 90 nM, the SHSY-5Y cells alive (SHSY-5Y cells; with exogenous iron (20 μM), compound 1 μM) was 100% and the “SHSY-5Y cell death (%)” value (SHSY-5Y cells; with iron (20 μM), compound 1 μM) was −1.0%. The “SHSY-5Y cell death (%)” value (SHSY-5Y cells; with iron (20 μM), compound 10 μM) was 7.6%, the “SHSY-5Y cell death (%)” value (SHSY-5Y cells; with iron (20 μM), compound 100 μM) was 90.3% and the “SHSY-5Y cell death (%)” value (SHSY-5Y cells; without iron, compound 1 μM) was 2.1%. The “SHSY-5Y cell death (%)” value (SHSY-5Y cells; without iron, compound 10 μM) was 0.8%, the “SHSY-5Y cell death (%)” value (SHSY-5Y cells; without iron, compound 100 μM) was 0.4% and the “MAO-A inhibition in striatum” value (MAO-A; mice, single i.p. injection, 5 or 10 mg/kg, one hour later) was “inhibited in a dose responsive fashion”. The “MAO-A inhibition in intestine” value (MAO-A; mice, single i.p. injection, small intestine, one hour later) was “Reduced inhibition in the intestinal tissue versus striatal tissue” and the “Penetration of brain tissue” value (MAO-A; mouse, in vivo, ip) was “able to penetrate brain tissue”.
